Values after ≈ are worked out from the molar mass of the structure shown.
Tests used:
Assay type in all cases: cell-based
[1] = test system: Pseudomonas sp. strain 4G; assay: Disc diffusion antibiotic susceptibility
Method: (§1) A disc diffusion method was performed to determine the susceptibility of bacteria to the selected antibiotics. We used discs soaked with the antibiotic of a well-defined concentration (BioMerioux) (Table 2) and the minimal inhibitory concentration test was carried out, using E-tests (Oxoid) (Table 3).
(§2) A McFarland's 0.5 inoculum was prepared from each strain's culture, using a densitometer (EMO). Then, using sterile cotton swabs, the suspension of bacterial cells was spread on dishes with ready-to-use MHA medium (Oxoid), and after 15 minutes, discs soaked with antibiotics at defined concentrations were placed on them.
(§3) The dishes were incubated at 25-30° C., and the results were read after 24 and 48 hours. The measure of susceptibility of a tested strain to a given antibiotic was the size of the inhibition zone which formed around the disc soaked with the antibiotic. The results read (sizes of zones measured in mm) were compared with the data contained in the European Committee on Antimicrobial Susceptibility Testing (EUCAST) standards from 2010 (Table 4).
(§4) The measure of susceptibility of the tested bacterial strain to a given antibiotic was the size of the inhibition zone which formed around the disc (Table 5).

[2] = test system: Stenotrophomonas sp. strain 3N; assay: Disc diffusion antibiotic susceptibility
Method: as §1, §2, §3, §4

[3] = test system: Brevundimonas sp. strain 2N; assay: Disc diffusion antibiotic susceptibility
Method: as §1, §2, §3, §4

[4] = test system: Stenotrophomonas sp. strain 5L; assay: Disc diffusion antibiotic susceptibility
Method: as §1, §2, §3, §4

[5] = test system: Achromobacter sp. strain 4P; assay: Disc diffusion antibiotic susceptibility
Method: as §1, §2, §3, §4

[6] = test system: Arthrobacter sp. strain 1N; assay: Disc diffusion antibiotic susceptibility
Method: as §1, §2, §3, §4

[7] = test system: Brevundimonas sp. strain 5N; assay: Disc diffusion antibiotic susceptibility
Method: as §1, §2, §3, §4

[8] = test system: Stenotrophomonas sp. strain 2L; assay: Disc diffusion antibiotic susceptibility
Method: as §1, §2, §3, §4

[9] = test system: Brevundimonas sp. strain 6N; assay: Disc diffusion antibiotic susceptibility
Method: as §1, §2, §3, §4

[10] = test system: Pseudomonas sp. strain 3G; assay: Disc diffusion antibiotic susceptibility
Method: as §1, §2, §3, §4

[11] = test system: Stenotrophomonas sp. strain 6L; assay: Disc diffusion antibiotic susceptibility
Method: as §1, §2, §3, §4

[12] = test system: Pseudomonas sp. strain 4G; assay: Antibiotic MIC by E-test; conditions: Pseudomonas, 24 h, read-out: MIC threshold values for a given antibiotic
Method: as §1
(§5) In the next stage of the research, MIC values of a given antibiotic for the investigated strains were determined, meaning the lowest concentration of the drug, expressed in mg/L, determined in vitro, which inhibits the growth of bacteria at a defined inoculum density, within a given time (Hryniewicz et at, 2001). These studies allow for the closer determination of the degree of susceptibility of bacteria to the applied antibiotics.
(§6) A bacterial suspension was evenly distributed on dishes with ready-to-use MHA medium (Oxoid), and then plastic testing strips (E-tests) soaked with an antibiotic with a concentration gradient were placed thereon. The dishes were incubated at 25-30° C. for 24 h, and the test results were read after this time.
(§7) The intersection of elliptical zone of inhibition, which appeared around the test strip, with the value indicator on the gradient scale of the strip, determined the lowest concentration of antibiotic, inhibiting growth of the microorganism (MIC). Similarly as in the disc diffusion method, the obtained results were compared with the guidelines contained in the relevant standards.

[13] = test system: Stenotrophomonas sp. strain 3N; assay: Antibiotic MIC by E-test; conditions: Stenotrophomonas, 24 h, read-out: MIC threshold values for a given antibiotic
Method: as §1, §5, §6, §7

[14] = test system: Brevundimonas sp. strain 2N; assay: Antibiotic MIC by E-test; conditions: Brevundimonas, 24 h, read-out: MIC threshold values for a given antibiotic
Method: as §1, §5, §6, §7

[15] = test system: Stenotrophomonas sp. strain 5L; assay: Antibiotic MIC by E-test; conditions: Stenotrophomonas, 24 h, read-out: MIC threshold values for a given antibiotic
Method: as §1, §5, §6, §7

[16] = test system: Achromobacter sp. strain 4P; assay: Antibiotic MIC by E-test; conditions: Achromobacter; strain 4P, E-test, 24 h; read-out: MIC threshold values for a given antibiotic
Method: as §1, §5, §6, §7

[17] = test system: Arthrobacter sp. strain 1N; assay: Antibiotic MIC by E-test; conditions: Arthrobacter; strain 1N, E-test, 24 h; read-out: MIC threshold values for a given antibiotic
Method: as §1, §5, §6, §7

[18] = test system: Brevundimonas sp. strain 5N; assay: Antibiotic MIC by E-test; conditions: Brevundimonas, 24 h, read-out: MIC threshold values for a given antibiotic
Method: as §1, §5, §6, §7

[19] = test system: Stenotrophomonas sp. strain 2L; assay: Antibiotic MIC by E-test; conditions: Stenotrophomonas, 24 h, read-out: MIC threshold values for a given antibiotic
Method: as §1, §5, §6, §7

[20] = test system: Brevundimonas sp. strain 6N; assay: Antibiotic MIC by E-test; conditions: Brevundimonas, 24 h, read-out: MIC threshold values for a given antibiotic
Method: as §1, §5, §6, §7

[21] = test system: Pseudomonas sp. strain 3G; assay: Antibiotic MIC by E-test; conditions: Pseudomonas, 24 h, read-out: MIC threshold values for a given antibiotic
Method: as §1, §5, §6, §7

[22] = test system: Stenotrophomonas sp. strain 6L; assay: Antibiotic MIC by E-test; conditions: Stenotrophomonas, 24 h, read-out: MIC threshold values for a given antibiotic
Method: as §1, §5, §6, §7

Row | Compound | Size of the growth inhibition zone ([1]; 24 h) [mm] | Size of the growth inhibition zone ([2]; 24 h) [mm] | Size of the growth inhibition zone ([3]; 24 h) [mm] | Size of the growth inhibition zone ([4]; 24 h) [mm] | Size of the growth inhibition zone ([5]; 24 h) [mm] | Size of the growth inhibition zone ([6]; 24 h) [mm] | Size of the growth inhibition zone ([7]; 24 h) [mm] | Size of the growth inhibition zone ([8]; 24 h) [mm] | Size of the growth inhibition zone ([9]; 24 h) [mm] | MIC [12] [µg/mL] | MIC [13] [µg/mL] | MIC [14] [µg/mL] | MIC [15] [µg/mL] | MIC [16] [µg/mL] | MIC [17] [µg/mL] | MIC [18] [µg/mL] | MIC [19] [µg/mL] | MIC [20] [µg/mL] | MIC [21] [µg/mL] | MIC [22] [µg/mL] | other results
1 | O=C(O)c1cn(C2CC2)c2cc(N3CCNCC3)c(F)cc2c1=O [CIP, ciprofloxacin] | 0 | 0 | 0 | 10 | 0 | 0 | 0 | 0 | 0 | ≥ 32 | ≥ 32 | ≥ 32 | 4 (≈ 12.1 µM) | ≥ 32 | ≥ 32 | ≥ 32 | ≥ 32 | ≥ 32 | ≥ 32 | ≥ 32 | Size of the growth inhibition zone ([4]; 48 h): 0 mm; Size of the growth inhibition zone ([10]; 24 h): 0 mm; Size of the growth inhibition zone ([11]; 24 h): 0 mm
2 | CCn1cc(C(=O)O)c(=O)c2cc(F)c(N3CCNCC3)cc21 [NX, norfloxacin] |  |  |  |  |  |  |  |  |  | > 256 | 128 (≈ 401 µM) | 256 (≈ 802 µM) | 32 (≈ 100 µM) | 256 (≈ 802 µM) | 96 (≈ 301 µM) | 128 (≈ 401 µM) | 128 (≈ 401 µM) | 96 (≈ 301 µM) | 192 (≈ 601 µM) | 128 (≈ 401 µM) | 
3 | CC[C@H]1OC(=O)[C@H](C)[C@@H](O[C@H]2C[C@@](C)(OC)[C@@H](O)[C@H](C)O2)[C@H](C)[C@@H](O[C@@H]2O[C@H](C)C[C@H](N(C)C)[C@H]2O)[C@](C)(O)C[C@@H](C)C(=O)[C@H](C)[C@@H](O)[C@]1(C)O [E, erythromycin] | 0 | 0 | 0 | 0 | 0 | 0 | 0 | 0 | 0 | ≥ 256 | ≥ 256 | 128 (≈ 174 µM) | ≥ 256 | 256 (≈ 349 µM) | 256 (≈ 349 µM) | 256 (≈ 349 µM) | ≥ 256 | 256 (≈ 349 µM) | ≥ 256 | ≥ 256 | Size of the growth inhibition zone ([10]; 24 h): 0 mm; Size of the growth inhibition zone ([11]; 24 h): 0 mm
4 | CN(C)[C@@H]1C(O)=C(C(N)=O)C(=O)[C@@]2(O)C(O)=C3C(=O)c4c(O)cccc4[C@@](C)(O)[C@H]3C[C@@H]12 [TE, tetracycline] | 19 | 19 | 18 | 19 | 19 | 17 | 18 | 17 | 17 | 6 (≈ 13.5 µM) | 6 (≈ 13.5 µM) | 6 (≈ 13.5 µM) | 8 (≈ 18 µM) | 12 (≈ 27 µM) | 6 (≈ 13.5 µM) | 6 (≈ 13.5 µM) | 6 (≈ 13.5 µM) | 6 (≈ 13.5 µM) | 6 (≈ 13.5 µM) | 6 (≈ 13.5 µM) | Size of the growth inhibition zone ([1]; 48 h): 0 mm; Size of the growth inhibition zone ([2]; 48 h): 0 mm; Size of the growth inhibition zone ([3]; 48 h): 0 mm; Size of the growth inhibition zone ([4]; 48 h): 0 mm; Size of the growth inhibition zone ([5]; 48 h): 0 mm; Size of the growth inhibition zone ([6]; 48 h): 0 mm; Size of the growth inhibition zone ([7]; 48 h): 0 mm; Size of the growth inhibition zone ([8]; 48 h): 0 mm; Size of the growth inhibition zone ([9]; 48 h): 0 mm; Size of the growth inhibition zone ([10]; 24 h): 17 mm; Size of the growth inhibition zone ([10]; 48 h): 0 mm; Size of the growth inhibition zone ([11]; 24 h): 17 mm; Size of the growth inhibition zone ([11]; 48 h): 0 mm

— US9012200B2, “Composition of bacterial strains, bioremediation mixture and use of this composition for the removal of contaminants from the soil and the method for purifying the soil contaminants” (priority 2012, dated 2015)
